Data as given in patent US20250099596A1, “TETRAHYDRONAPHTHALENE COMPOUND, AND PREPARATION METHOD THEREFOR AND USE THEREOF IN MEDICINE” (Jiangsu Hengrui Pharmaceuticals Co., Ltd., priority 2021, published 2025).

Columns and labels:
[1] = tested on: MCF7 cells; experiment: Inhibitory effects on MCF7 cell proliferation (CellTiter-Glo); assay type: cell-based; details: Homo sapiens, 144 h, 6 days incubation, read-out: IC50 (nM), inhibition of MCF7 cell proliferation
Protocol: (§1) MCF7 cells (TCHu74, National Collection of Authenticated Cell Cultures) were cultured in an MEM (GE Healthcare, SH30024.01) complete medium containing 10% fetal bovine serum. On day 1 of the experiment, MCF7 cells were seeded into a 96-well plate at a density of 3,000 cells/well using MEM containing 2% fetal bovine serum, with each well containing 135 μL of cell suspension. The plate was incubated in a 37° C., 5% CO2 cell incubator overnight. The next day, different concentrations of test compounds prepared in media were added at 15 μL/well. The final concentrations of the compounds were 9 concentration points obtained by 4-fold serial dilution from 1000 nM. A blank control containing 0.5% DMSO was set up. The plate was incubated in a 37° C., 5% CO2 cell incubator for 6 days. On day 8, the 96-well cell culture plate was taken out, and CellTiter-Glo® Luminescent Cell Viability Assay (Promega, G7573) was added at 75 μL/well. After the plate was left at room temperature for 10 min, luminescence signal readings were taken on a multilabel microplate reader (PerkinElmer, VICTOR 3). The IC50 values for the inhibitory activity of the compounds were calculated from the concentrations of the compounds and the luminescence signal readings using Graphpad Prism software.

[2] = tested on: MCF7/ERα Y537S cells; experiment: Inhibitory activity on proliferation of ERα mutant-expressing MCF7 cells; assay type: cell-based; details: Homo sapiens, 144 h, 6 days incubation, CellTiter-Glo, read-out: IC50 (nM), inhibition of proliferation of ERα mutant-expressing MCF7 cells
Protocol: The objective of this experiment was to determine the inhibitory activity of the compounds of the present disclosure on the proliferation of ERα mutant-expressing MCF7 cells.
as §1, with “cells expressing the ERα Y537S mutant were constructed by lentiviral infection. MCF7/ERα Y537S cells” for “cells (TCHu74, National Collection of Authenticated Cell Cultures)”, “bovine serum and […] puromycin.” for “bovine serum.”, “experiment,” for “experiment, MCF7”, “135 µL” for “135 μL”, “75 µL/well.” for “75 μL/well.”

| IC50 [1] [nM] | IC50 [2] [nM] | SMILES |
| --- | --- | --- |
| 0.78 | 3.62 | CCC[C@H]1CCc2cc(O)ccc2[C@H]1c1ccc(N2CCC(CN3CCN(c4ccc5c(c4)CN([C@H]4CCC(=O)NC4=O)C5=O)CC3)CC2)cc1 [Example 29, (S)-3-(5-(4-((1-(4-((1R,2S)-6-Hydroxy-2-propyl-1,2,3,4-tetrahydronaphthalen-1-yl)phenyl)piperidin-4-yl)methyl)piperazin-1-yl)-1-oxoisoindolin-2-yl)piperidine-2,6-dione] |
| 3.17 | 8.89 | CC(C)CC[C@H]1CCc2cc(O)ccc2[C@H]1c1ccc(N2CCC(CN3CCN(c4ccc5c(c4)CN([C@H]4CCC(=O)NC4=O)C5=O)CC3)CC2)cc1 [Example 40, (S)-3-(5-(4-((1-(4-((1R,2S)-6-Hydroxy-2-isopentyl-1,2,3,4-tetrahydronaphthalen-1-yl)phenyl)piperidin-4-yl)methyl)piperazin-1-yl)-1-oxoisoindolin-2-yl)piperidine-2,6-dione] |
| 0.46 | 2.8 | O=C1CCC(N2Cc3cc(N4CCN(CC5CCN(c6ccc([C@@H]7c8ccc(O)cc8CC[C@@H]7C7CCOCC7)cc6)CC5)CC4)ccc3C2=O)C(=O)N1 (mixture of isomers) [Example 8-1, 3-(5-(4-((1-(4-((1R,2R)-6-Hydroxy-2-(tetrahydro-2H-pyran-4-yl)-1,2,3,4-tetrahydronaphthalen-1-yl)phenyl)piperidin-4-yl)methyl)piperazin-1-yl)-1-oxoisoindolin-2-yl)piperidine-2,6-dione] |
| 2.39 | 7.53 | O=C1CCC(N2Cc3cc(N4CCN(CC5CCN(c6ccc([C@@H]7c8ccc(O)cc8CCC78CCC8)cc6)CC5)CC4)ccc3C2=O)C(=O)N1 (mixture of isomers) [Example 23-1, 3-(5-(4-((1-(4-((R)-6′-Hydroxy-3′,4′-dihydro-1′H-spiro[cyclobutane-1,2′-naphthalen]-1′-yl)phenyl)piperidin-4-yl)methyl)piperazin-1-yl)-1-oxoisoindolin-2-yl)piperidine-2,6-dione] |
| 4.64 | 13.8 | CCC(CC)C[C@H]1CCc2cc(O)ccc2[C@H]1c1ccc(N2CCC(CN3CCN(c4ccc5c(c4)CN([C@H]4CCC(=O)NC4=O)C5=O)CC3)CC2)cc1 [Example 38, (S)-3-(5-(4-((1-(4-((1R,2R)-6-Hydroxy-2-(2-ethylbutyl)-1,2,3,4-tetrahydronaphthalen-1-yl)phenyl)piperidin-4-yl)methyl)piperazin-1-yl)-1-oxoisoindolin-2-yl)piperidine-2,6-dione] |
| 1.35 | 7.77 | O=C1CC[C@H](N2Cc3cc(N4CCN(CC5CCN(c6ccc([C@@H]7c8ccc(O)cc8CC[C@@H]7C7CCC7)cc6F)CC5)CC4)ccc3C2=O)C(=O)N1 [Example 18-1, (S)-3-(5-(4-((1-(4-((1R,2R)-2-Cyclobutyl-6-hydroxy-1,2,3,4-tetrahydronaphthalen-1-yl)-2-fluorophenyl)piperidin-4-yl)methyl)piperazin-1-yl)-1-oxoisoindolin-2-yl)piperidine-2,6-dione] |
| 14.3 | 31.4 | O=C1CCC(N2Cc3cc(N4CCN(CC5CCN(c6ccc([C@H]7c8ccc(O)cc8CC[C@H]7C7CCCCC7)cc6)CC5)CC4)ccc3C2=O)C(=O)N1 (stereo partly drawn) [Example 15-2, 3-(5-(4-((1-(4-((1S,2S)-2-Cyclohexyl-6-hydroxy-1,2,3,4-tetrahydronaphthalen-1-yl)phenyl)piperidin-4-yl)methyl)piperazin-1-yl)-1-oxoisoindolin-2-yl)piperidine-2,6-dione] |
| 8.34 | 28.8 | O=C1CC[C@H](N2Cc3cc(N4CCN(CC5CCN(c6ccc([C@@H]7c8ccc(O)cc8OC[C@@H]7C7CCC7)cc6)CC5)CC4)ccc3C2=O)C(=O)N1 [Example 32, (S)-3-(5-(4-((1-(4-((3R,4R)-3-Cyclobutyl-7-hydroxychroman-4-yl)phenyl)piperidin-4-yl)methyl)piperazin-1-yl)-1-oxoisoindolin-2-yl)piperidine-2,6-dione] |
| 4.63 | 14.9 | O=C1CCC(N2Cc3cc(N4CCN(CC5CCN(c6ccc([C@@H]7c8ccc(O)cc8CC[C@@H]7C7CC7)cc6)CC5)CC4)ccc3C2=O)C(=O)N1 (stereo partly drawn) [Example 16, 3-(5-(4-((1-(4-((1,2)-cis-2-Cyclopropyl-6-hydroxy-1,2,3,4-tetrahydronaphthalen-1-yl)phenyl)piperidin-4-yl)methyl)piperazin-1-yl)-1-oxoisoindolin-2-yl)piperidine-2,6-dione] |
| 0.92 | 4.71 | O=C1CCC(N2Cc3cc(N4CCN(CC5CCN(c6ccc([C@@H]7c8ccc(O)cc8CC[C@@H]7C7CCOCC7)cc6F)CC5)CC4)ccc3C2=O)C(=O)N1 (mixture of isomers) [Example 4-1, 3-(5-(4-((1-(2-Fluoro-4-((1R,2R)-6-hydroxy-2-(tetrahydro-2H-pyran-4-yl)-1,2,3,4-tetrahydronaphthalen-1-yl)phenyl)piperidin-4-yl)methyl)piperazin-1-yl)-1-oxoisoindolin-2-yl)piperidine-2,6-dione] |
| 1.94 | 7.83 | O=C1CCC(N2Cc3cc(N4CCN(CC5CCN(c6ccc([C@@H]7c8ccc(O)cc8CCC78CCCC8)cc6)CC5)CC4)ccc3C2=O)C(=O)N1 (mixture of isomers) [Example 2-1, 3-(5-(4-((1-(4-((R)-6′-Hydroxy-3′,4′-dihydro-1′H-spiro[cyclopentane-1,2′-naphthalen]-1′-yl)phenyl)piperidin-4-yl)methyl)piperazin-1-yl)-1-oxoisoindolin-2-yl)piperidine-2,6-dione] |
| 1.46 | 5.27 | CC(C)C[C@H]1CCc2cc(O)ccc2[C@H]1c1ccc(N2CCC(CN3CCN(c4ccc5c(c4)CN([C@H]4CCC(=O)NC4=O)C5=O)CC3)CC2)c(F)c1 [Example 37, (S)-3-(5-(4-((1-(2-Fluoro-4-((1R,2R)-6-hydroxy-2-isobutyl-1,2,3,4-tetrahydronaphthalen-1-yl)phenyl)piperidin-4-yl)methyl)piperazin-1-yl)-1-oxoisoindolin-2-yl)piperidine-2,6-dione] |
| 1.56 | 8.35 | O=C1CCC(N2Cc3cc(N4CCN(CC5CCN(c6ccc([C@@H]7c8ccc(O)cc8CCC78CCCC8)cc6F)CC5)CC4)ccc3C2=O)C(=O)N1 (stereo in doubt) [Example 36, (S)-3-(5-(4-((1-(2-Fluoro-4-((R)-6′-hydroxy-3′,4′-dihydro-1′H-spiro[cyclopentane-1,2′-naphthalen]-1′-yl)phenyl)piperidin-4-yl)methyl)piperazin-1-yl)-1-oxoisoindolin-2-yl)piperidine-2,6-dione] |
| 8.17 | 24.4 | O=C1CCC(N2Cc3cc(N4CCN(CC5CCN(c6ccc([C@H]7c8ccc(O)cc8CC[C@H]7C7CCCC7)cc6)CC5)CC4)ccc3C2=O)C(=O)N1 (stereo partly drawn) [Example 14-2, 3-(5-(4-((1-(4-((1S,2S)-2-Cyclopentyl-6-hydroxy-1,2,3,4-tetrahydronaphthalen-1-yl)phenyl)piperidin-4-yl)methyl)piperazin-1-yl)-1-oxoisoindolin-2-yl)piperidine-2,6-dione] |

| SMILES | IC50 [1] [nM] | IC50 [2] [nM] |
| --- | --- | --- |
| O=C1CC[C@H](N2Cc3cc(N4CCN(CC5CCN(c6ccc([C@@H]7c8ccc(O)cc8CC[C@@H]7C7CCOCC7)cc6F)CC5)CC4)ccc3C2=O)C(=O)N1 [Example 5, (S)-3-(5-(4-((1-(2-Fluoro-4-((1R,2R)-6-hydroxy-2-(tetrahydro-2H-pyran-4-yl)-1,2,3,4-tetrahydronaphthalen-1-yl)phenyl)piperidin-4-yl)methyl)piperazin-1-yl)-1-oxoisoindolin-2-yl)piperidine-2,6-dione] | 0.72 | 2.29 |
| O=C1CCC(N2Cc3nc(N4CCN(CC5CCN(c6ccc([C@@H]7c8ccc(O)cc8CCC78CCCC8)cc6)CC5)CC4)ccc3C2=O)C(=O)N1 (mixture of isomers) [Example 6, 3-(2-(4-((1-(4-((R)-6′-Hydroxy-3′,4′-dihydro-1′H-spiro[cyclopentane-1,2′-naphthalen]-1′-yl)phenyl)piperidin-4-yl)methyl)piperazin-1-yl)-5-oxo-5,7-dihydro-6H-pyrrolo[3,4-b]pyridin-6-yl)piperidine-2,6-dione] | 0.75 | 3.19 |
